Measured values published in article PMC12455572, “Amphipathic Proline-Rich Cell Penetrating Peptides for Targeting Mitochondria” (ACS Chemical Biology, 2025).
Entries after “also recorded” stand apart in the source; their conditions may differ. Where a SMILES comes first, the peptide text is derived from it. [ ]: non-standard residue; d: D form. The star is where a group is joined. 5FAM = O=C1OC2(c3ccc(O)cc3Oc3cc(O)ccc32)c2ccc(C(=O)*)cc21; Pro(cis-4-guanidino) = NC(N)=N[C@@H]1CN[C@H](C(=O)O)C1; Cha = N[C@@H](CC1CCCCC1)C(=O)O; Ahx = NCCCCCC(=O)O

Legend:
[1] = RP-HPLC retention time as estimate of hydrophobicity (C4 column, 30 to 55% B); format: physicochemical; conditions: RP-HPLC used as estimate of hydrophobicity, A H2O/MeCN/TFA (1000/10/1), gradient 30 to 55% B, 20 min, CF-Ahx-labelled peptides
Procedure: 2 (A) General structure of amphipathic peptides, CF-Ahx-[XZZ]3-NH2; CF = 5(6)-Carboxyfluorescein, Ahx = aminohexanoic acid. (B) CD spectra of the peptides, recorded at 50 μM in H2O, pH 5.7. For a comparison with a spectrum of a Gup oligomer, see Figure S2. (C) Retention time of the peptides measured by RP-HPLC on a C4 column with a mobile phase from 30 to 55% of MeCN in H2O/MeCN/TFA (1000/10/1). (D) Representative confocal microscopic images of live MCF-7 cells, incubated for 1 h at 37 °C with peptide solutions at a concentration of 10 μM in DMEM + 1% FBS (left, in green). Mitochondria were stained with Deep Red MitoTracker (middle, in red) and merged images (right, orange/yellow indicating colocalization) with Hoechst33342 stain (blue) for the nucleus. TEXT PRINTED IN THE PICTURE: (C) (ValZZ)3: tr(min): 1.8 | (C) (PheZZ)3: tr(min): 2.9 | (C) (TrpZZ)3: tr(min): 3.2 | (C) (ChaZZ)3: tr(min): 5.4 DOUBTS OF THE COPYIST ABOUT THIS PICTURE: Panel C, column head: the small lowered letter after t is read as r (tr), not certain
The Gup residues should preorganize the peptides into a PPII helix with one hydrophobic and two cationic edges along the PPII helical peptide. Indeed, circular dichroism (CD) spectra of the peptides display the characteristic minimum and maximum at ∼206 nm and ∼224 nm, respectively, of a PPII helix (Figure B). The spectra imply that the non-proline residues in every third position are tolerated within the helical structure. We used reverse phase high performance liquid chromatography (RP-HPLC) for an estimate of the hydrophobicity of the peptides. On a C4 column using two mobile phases A (H2O/MeCN/TFA (1000/10/1)) and B (MeCN) with a gradient of 30% to 55% B, all peptides eluted over 20 min but with different retention times (Figure C). The Cha-containing peptide had the longest retention time, indicating the highest hydrophobicity within the series, followed by the Trp-, Phe-, and Val-peptides.

MCF-7 cells = assay: Confocal microscopy of live cells: cellular uptake and intracellular localization; format: cell-based; conditions: live MCF-7 cells; for Cellular uptake and intracellular localization (confocal microscopy): 1 h, 37 °C, DMEM + 1% FBS; for Intracellular localization after 24 h rest (confocal microscopy, Figure S7): 1 h incubation at 37 °C, washing, 24 h rest in DMEM + 10 % FBS, concentration not given
Procedure: MitoTracker Deep Red was used as a counter stain for mitochondria and Hoechst 33342 for the nucleus. […] To explore whether PPII-helicity is key for mitochondrial localization, we prepared peptide CF-Ahx-(ChaRR)3-NH2 with Arg instead of Gup residues. This control peptide features a flexible conformation as judged by CD spectroscopy (Figure S1B). […] These findings show the importance of the secondary structure of the CPP for subcellular organelle localization.
MCF-7 cells were seeded in a 8-μwell Ibidi plate at 25′000 cells/well in DMEM (100 μL, 10% FCS) and allowed to adhere overnight. The medium was removed, the cells were washed with PBS (200 μL, 1x) and incubated with the peptide solution at 20 μM, 10 μM, 5 μM or 2.5 μM in DMEM (200 μL, 1% FCS) for 1 h at 37 °C. The medium was removed, and the cells were washed with PBS (200 μL, 2x). MitoTracker Deep Red was distributed at 20 nM in DMEM (200 μL, 1% FBS) and the cells were incubated at 37 °C for 25 min. The medium was removed, and the cells were washed with PBS (200 μL, 2x). Hoechst333342 was distributed at 2 μM in DMEM (200 μL, 1% FBS) and the cells were incubated at 37 °C for 5 min. The cells were washed with PBS (200 μL, 2x), and FluoroBrite medium (200 μL) was added. The live cells were monitored on the confocal microscope at 37 °C, 5% CO2.
For the cells subjected to a 24 h rest period, the FluoroBrite medium was exchanged for DMEM (200 μL, 10% FBS) after the initial imaging, and the cells were kept in this medium for 24 h. The culture medium was then exchanged for FluoroBrite DMEM, and the cells were imaged again.
Fluorescence images of cells were collected using a Nikon Eclipse T1 (inverse) microscope equipped with a Yokogawa Confocal Scanner Unit CSU-W1-T2, containing a spinning disk (50 µm). The microscope is equipped with two EMCCD Andor iXon Ultra cameras. Emission in the blue channel (405 nm) was filtered with a 450/50 bandpass filter, emission in the green channel (488 nm) was filtered with a 525/50 bandpass, and the emission in the red channel (641 nm) was filtered with a 708/75 bandpass filter. Fluorescence images were obtained using an oil-immersion objective with a magnification of 100 × 1.4 CFI Plan Apo Oil.
Each experiment was repeated at least three times. The images acquired were adjusted using ImageJ2 software. Correlation coefficients were determined on entire images using JaCOP plugin.1 […]
MCF-7 cells were seeded in a 8-µwell Ibidi plate at 25’000 cells/well in DMEM (100 µL, 10% FCS) and allowed to adhere overnight. The medium was removed. The cells were washed with PBS (200 µL, 1x) and incubated with the peptide solution at 20 µM, 10 µM, 5 µM, or 2.5 µM in DMEM (200 µL, 1% FCS) for 1 h at 37 °C. The medium was removed, and the cells were washed with PBS (200 µL, 2x).
For imaging of mitochondria, MitoTracker Deep Red was added as described in the manuscript. For imaging of endosomes/lysosomes, Ly s o Tr a c k e r Deep Red was added (200 µL, 20 nM in DMEM, 1% FBS) followed by incubation of the cells at 37 °C for 25 min. The medium was removed, and the cells were washed with PBS (200 µL, 2x). For imaging of the nucleus, Hoechst333342 was added at (200 µL, 2 µM in DMEM, 1% FBS) followed by incubation of the cells at 37 °C for 5 min. The cells were washed with PBS (200 µL, 2x), and FluoroBrite medium (200 µL) was added. The live cells were monitored on the confocal microscope […]
MCF-7 cells were seeded in a 96-well plate at 7’500 cells/well in cell culture medium (200 µL, 10% FCS), and allowed to adhere overnight. The medium was removed, the cells were washed with PBS (100 µL, 1x) and incubated with the peptide solution at 20 µM, 10 µM, 5 µM, or 2.5 µM in DMEM (200 µL, 1% FCS) for 1 h at 37 °C. The medium was removed, and the cells were washed with PBS (100 µL, 1x). The MTT solution in DMEM (110 µL, 1.2 mM, 1% FBS) was added. The cells were incubated for 3 h at 37 °C. The […]

[2] = concentration not stated at the place or given within the value

Row | Molecule | Retention time tr [1] [min] | Cellular uptake and intracellular localization (confocal microscopy) (MCF-7 cells; 5 μM peptide) | Cellular uptake and intracellular localization (confocal microscopy) (MCF-7 cells; [2]) | Intracellular localization after 24 h rest (confocal microscopy, Figure S7) (MCF-7 cells) | Cellular uptake and intracellular localization (confocal microscopy) (MCF-7 cells; 20 μM peptide) | Cellular uptake and intracellular localization (confocal microscopy) (MCF-7 cells; 10 μM peptide, MitoTracker Deep Red and Hoechst 33342 counterstain)
1 | N=C(N)N[C@H]1C[C@@H](C(=O)N2C[C@@H](NC(=N)N)C[C@H]2C(=O)N[C@@H](CC2CCCCC2)C(=O)N2C[C@@H](NC(=N)N)C[C@H]2C(=O)N2C[C@@H](NC(=N)N)C[C@H]2C(=O)N[C@@H](CC2CCCCC2)C(=O)N2C[C@@H](NC(=N)N)C[C@H]2C(=O)N2C[C@@H](NC(=N)N)C[C@H]2C(=O)N[C@@H](CC2CCCCC2)C(N)=O)N(C(=O)[C@H](CC2CCCCC2)NC(=O)CCCCCNC(=O)c2ccc3c(c2)C(=O)OC32c3ccc(O)cc3Oc3cc(O)ccc32)C1 [(ChaZZ)3-Cha, CF-Ahx-(ChaZZ)3-Cha-NH2] ({5FAM-Ahx}-[Cha][Pro(cis-4-guanidino)][Pro(cis-4-guanidino)][Cha][Pro(cis-4-guanidino)][Pro(cis-4-guanidino)][Cha][Pro(cis-4-guanidino)][Pro(cis-4-guanidino)][Cha]-NH2) | 8.5 | intracellular localization | localized in mitochondria, endosomes, and the plasma membrane; also recorded: localized in the mitochondria and not the nucleus but was also trapped in endosomes | localized predominantly in the mitochondria |  | 
2 | CF-Ahx-(ChaZZ)2-Cha-NH2 | 8.1 |  | localized in mitochondria and the cytoplasm | localized in the cytoplasm as punctuated fluorescence and remains slightly in the mitochondria | strong mitochondrial colocalization at 20 μM (Figure D) with limited endosomal entrapment | 
3 | CF-Ahx-(ChaZZ)3-NH2 |  | low uptake; also recorded: no fluorescence was visible; also recorded: minimal fluorescence | localized in the cytoplasm, the nucleoli, and the mitochondria at concentrations of 10 μM and higher | localized predominantly in the mitochondria |  | localizes in the mitochondria; also recorded: localized in the mitochondria as well as in the cytoplasm and the nucleoli
